One may read the MIC as the lowest concentration that inhibits growth of the organism.

Where only a bound is given, the exact number is not on record here.

One test has as its system Escherichia coli (ATCC25922) or Staphylococcus aureus (ATCC25923). In words: Antibacterial MIC, microdilution method in Mueller-Hinton medium. It is filed as cell-based. The settings on record: Escherichia coli, 18 h, MIC in E. coli or S. aureus; two-fold serial dilutions 64 to 0.5 μg/ml in duplicate; 18 hours of incubation at 35° C.; read-out: Potency (MIC). The method in brief: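 Two-fold serial dilutions from 64 to 0.5 μg/ml, in duplicate, by broth microdilution in Mueller-Hinton medium (NCCLS M7-A5). MIC taken as the lowest concentration preventing visible growth after 18 h at 35° C.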
On to `Cc1ccc(S(=O)(=O)N(Cc2ccccc2)c2ccc(Nc3nc(C4CCCCC4)nc(N4CCCCC4)n3)cc2O)cc1.Cl` [N-{4-[4-((3S,5R)-3-Amino-5-hydroxy-piperidin-1-yl)-6-((3R,5S)-3,5-diamino-piperidin-1-l)-[1,3,5]triazin-2-ylamino]-2-hydroxy-phenyl}-N-benzyl-4-methyl-benzenesulfonamide], for which the MIC is under 64 µg/mL. With `Cc1ccc(C(=O)Nc2ccc(Nc3nc(N(CCN)CCN)nc(N4CCCCC4)n3)cc2O)cc1.Cl` [N-{4-[4-[Bis-(2-amino-ethyl)-amino]-6-((3R,5S)-3,5-diamino-piperidin-1-yl-[1,3,5]triazin-2-ylamino]-2-hydroxy-phenyl}-4-methyl-benzamide], the MIC is under 64 µg/mL. In the case of `Cc1cc(NC(=O)c2cc3cccc(O)c3cc2O)ccc1Nc1nc(N2C[C@H](N)C[C@H](N)C2)nc(N2C[C@H](N)C[C@H](N)C2)n1` [N-{4-[(3,5-dihydroxy-naphthalene-2-carbonyl)-amino]-2-methyl-phenyl}-4,6-Bis-((3R,5S)-3,5-diamino-piperidin-1-yl)-[1,3,5]triazine-2-amine], the MIC was under 64 µg/mL. Take `Cc1cc(Nc2nc(N3C[C@H](N)C[C@H](N)C3)nc(N3C[C@H](N)C[C@H](N)C3)n2)ccc1NC(=O)c1cc2cccc(O)c2cc1O` [N-{4-[(3,5-dihydroxy-naphthalene-2-carbonyl)-amino]-3-methyl-phenyl]-4,6-Bis-((3R,5S)-3,5-diamino-piperidin-1-yl)-[1,3,5]triazine-2-amine]: the MIC is under 64 µg/mL. Still for that read-out and setting: the figure for `N[C@@H]1C[C@H](N)CN(c2nc(Nc3ccc(NC(=O)c4cc5cccc(O)c5cc4O)cc3)nc(N3C[C@H](N)C[C@H](N)C3)n2)C1` [N-{4-[(3,5-dihydroxy-naphthalene-2-carbonyl)-amino]-phenyl}-4,6-Bis-((3R,5S)-3,5-diamino-piperidin-1-yl)-[1,3,5]triazine-2-amine] is under 64 µg/mL; for `N[C@@H]1C[C@H](N)CN(c2nc(Nc3ccc(NC(=O)C45CC6CC(CC(C6)C4)C5)c(O)c3)nc(N3C[C@H](N)C[C@H](N)C3)n2)C1` [N-{4-[(adamantane-1-carbonyl)-amino]-3-hydroxy-phenyl}-4,6-Bis-((3R,5S)-3,5-diamino-piperidin-1-yl)-[1,3,5]triazine-2-amine] it is under 16 µg/mL; for `CC(=O)Nc1ccc(Nc2nc(N3C[C@H](N)C[C@H](N)C3)nc(N3C[C@H](N)C[C@H](N)C3)n2)cc1` [drawing 178, N-(4-acetylamino-phenyl)-4,6-Bis-((3R,5S)-3,5-diamino-piperidin-1-yl)-[1,3,5]triazine-2-amine] it is over 64 µg/mL.

On to `Cc1ccc(C(=O)Nc2ccc(Nc3nc(N4CCCCC4)nc(N4CCCC4)n3)cc2O)cc1.Cl` [drawing 244, N-{4-[4-((3R,5S)-3,5-Diamino-piperidin-1-yl)-6-((3R,4S)-3,4-dihydrooxy-pyrrolidin-1-yl)-[1,3,5]triazin-2-ylamino]-2-hydroxy-phenyl}-4-methyl-benzamide], for which the MIC is over 64 µg/mL.

Staying with this test, now noted: Escherichia coli, 18 h, read-out: Potency (MIC).
As to `Cc1ccc(C(=O)Nc2ccc(Nc3nc(N4C[C@H](N)C[C@H](N)C4)nc(N4C[C@H](CN)C[C@H](CN)C4)n3)cc2O)cc1` [N-{4-[4-((3S,5R)-3,5-Bis-(aminomethyl)-piperidin-1-yl)-6-((3R,5S)-3,5-diamino-piperidin-1-yl)-[1,3,5]triazin-ylamino]-2-hydroxy-phenyl}-4-methyl-benzamide], the MIC is under 64 µg/mL.

As for `Cc1ccc(C(=O)Nc2ccc(Nc3nc(N4C[C@H](N)C[C@H](N)C4)nc(N4C[C@@H](N)C[C@@H](O)C4)n3)cc2O)cc1` [N-{4-[4-((3S,5R)-3-Amino-5-hydroxy-piperidin-1-yl)-6-((3R,5S)-3,5-diamino-piperidin-1-yl)-[1,3,5]triazin-2-ylamino]-2-hydroxy-phenyl}-4-methyl-benzamide], the MIC is under 64 µg/mL. As for `N[C@@H]1C[C@H](N)CN(c2nc(Nc3ccc(NC(=O)c4ccc(Cl)cc4)c(O)c3)nc(N3C[C@@H](N)C[C@@H](O)C3)n2)C1` [N-{4-[4-((3S,5R)-3-Amino-5-hydroxy-piperidin-1-yl)-6-((3S,5R)-3,5-diamino-piperidin-1-yl)-[1,3,5]triazin-2-ylamino]-2-hydroxy-phenyl}-4-chloro-benzamide], the minimal inhibitory concentration (MIC) is under 16 µg/mL.

Take `NCCN(CCN)c1nc(Nc2ccc(NC(=O)C(=O)c3c[nH]c4ccccc34)c(O)c2)nc(N2C[C@H](N)C[C@H](N)C2)n1` [N-{4-[4-[Bis-(2-amino-ethyl)-amino]-6-((3R,5S)-3,5-diamino-piperidin-1-yl)-[1,3,5]triazin-2-ylamino]-2-hydroxy-phenyl}-2-(1H-indol-3-yl)-2-oxo-acetamide]: the MIC was under 16 µg/mL.

As to `NCCN(CCN)c1nc(Nc2ccc(NC(=O)c3ccc(Cl)cc3)c(O)c2)nc(N2C[C@H](N)C[C@H](N)C2)n1` [N-{4-[4-[Bis-(2-amino-ethyl)-amino]-6-((3R,5S)-3,5-diamino-piperidin-1-yl)-[1,3,5]triazin-2-ylamino]-2-hydroxy-phenyl}-4-chloro-benzamide], the MIC was under 64 µg/mL. Still for that read-out and setting: in the case of `N[C@@H]1C[C@H](N)CN(c2nc(Nc3ccc(NC(=O)c4ccc5ccccc5c4O)cc3)nc(N3C[C@H](N)C[C@H](N)C3)n2)C1` [N-{4-[(1-hydroxy-naphthalene-2-carbonyl)-amino]-phenyl}-4,6-Bis-((3R,5S)-3,5-diamino-piperidin-1-yl)-[1,3,5]triazine-2-amine] it was under 16 µg/mL; in that of `N[C@@H]1C[C@H](N)CN(c2nc(Nc3ccc(NC(=O)c4ccc(C(F)(F)F)nc4O)cc3)nc(N3C[C@H](N)C[C@H](N)C3)n2)C1` [N-{4-[(2-hydroxy-6-trifluoromethyl-pyridine-3-carbonyl)-amino]-phenyl}-4,6-Bis-((3R,5S)-3,5-diamino-piperidin-1-yl)-[1,3,5]triazine-2-amine], under 16 µg/mL.

As for `N[C@@H]1C[C@H](N)CN(c2nc(Nc3ccc(NC(=O)c4c(O)ccc5ccccc45)cc3)nc(N3C[C@H](N)C[C@H](N)C3)n2)C1` [N-{4-[(2-hydroxy-naphthalene-1-carbonyl)-amino]-phenyl}-4,6-Bis-((3R,5S)-3,5-diamino-piperidin-1-yl)-[1,3,5]triazine-2-amine], the MIC is under 16 µg/mL. On the same count and under the same terms, the figure for `N[C@@H]1C[C@H](N)CN(c2nc(Nc3ccc(NC(=O)c4ncccc4O)cc3)nc(N3C[C@H](N)C[C@H](N)C3)n2)C1` [N-{4-[(3-hydroxy-pyridine-2-carbonyl)-amino]-phenyl}-4,6-Bis-((3R,5S)-3,5-diamino-piperidin-1-yl)-[1,3,5]triazine-2-amine] is under 64 µg/mL.

With `N[C@@H]1C[C@H](N)CN(c2nc(Nc3ccc(NC(=O)c4cc(Cl)cnc4O)cc3)nc(N3C[C@H](N)C[C@H](N)C3)n2)C1` [N-{4-[(5-chloro-2-hydroxy-pyridine-3-carbonyl)-amino]-phenyl}-4,6-Bis-((3R,5S)-3,5-diamino-piperidin-1-yl)-[1,3,5]triazine-2-amine], the MIC was under 64 µg/mL. The same measure, in the same setting: the figure for `N[C@@H]1C[C@H](N)CN(c2nc(Nc3ccc(NC(=O)c4ccc5cccnc5c4O)cc3)nc(N3C[C@H](N)C[C@H](N)C3)n2)C1` [N-{4-[(8-hydroxy-quinoline-7-carbonyl)-amino]-phenyl}-4,6-Bis-((3R,5S)-3,5-diamino-piperidin-1-yl)-[1,3,5]triazine-2-amine] is under 16 µg/mL; for `N[C@@H]1C[C@H](N)CN(c2nc(Nc3ccc(C(=O)NCc4ccc5c(c4)OCO5)c(O)c3)nc(N3C[C@H](N)C[C@H](N)C3)n2)C1` [N-{4-[(benzo[1,3]dioxol-5-ylmethyl)-carbamoyl]-3-hydroxy-phenyl}-4,6-Bis-((3R,5S)-3,5-diamino-piperidin-1-yl)-[1,3,5]triazine-2-amine] it is under 64 µg/mL. Regarding `Cc1ccc(S(=O)(=O)N(Cc2ccccc2)c2ccc(Nc3nc(N4C[C@H](N)C[C@H](N)C4)nc(N4C[C@H](N)C[C@H](N)C4)n3)cc2O)cc1` [N-{4-[benzyl-(toluene-4-sulfonyl)-amino]-3-hydroxy-phenyl}-4,6-Bis-((3R,5S)-3,5-diamino-piperidin-1-yl)-[1,3,5]triazine-2-amine], the MIC was under 16 µg/mL. The same measure, in the same setting: in the case of `CC(=O)Nc1ccc(Nc2nc(N3C[C@H](N)C[C@H](N)C3)nc(N3C[C@H](N)C[C@H](N)C3)n2)cc1` [drawing 485, N-(4-acetylamino-phenyl)-4,6-Bis-((3R,5S)-3,5-diamino-piperidin-1-yl)-[1,3,5]triazine-2-amine] it was under 64 µg/mL.

The test is the same for the next values; noted with them: MIC in E. coli or S. aureus; two-fold serial dilutions 64 to 0.5 μg/ml in duplicate; 18 hours of incubation at 35° C.
For `Cl.O=C(Oc1ccccc1)c1ccc(Nc2nc(N3CCCCC3)nc(N3CCCCC3)n2)cc1O` [drawing 229, 4-[4-((3S,5R)-3,5-diamino-piperidin-1-yl)-6-((3R,5R)-3,5-dihydroxy-piperidin-1-yl)-[1,3,5]triazin-2-ylamino]-2-hydroxy-benzoic acidphenyl ester], the “Potency (MIC)” value was “− (− means MIC>64 μg/ml in E. coli or S. aureus)”. Still for that read-out and setting: the entry for `Cc1ccc(C(=O)Nc2ccc(Nc3nc(N4CCCCC4)nc(N4CCCC4)n3)cc2O)cc1.Cl` [drawing 285, NM-{4-[4-((3R,5S)-3,5-Diamino-piperidin-1-yl)-6-((3R,4S)-3,4-diamino-pyrrolidin-1-yl)-[1,3,5]triazin-2-ylamino]-2-hydroxy-phenyl}-4-methyl-benzamide] is “+ (+ means MIC<64 μg/ml in E. coli or S. aureus)”; for `Cl.O=C(Oc1ccccc1)c1ccc(Nc2nc(N3CCCCC3)nc(N3CCCCC3)n2)cc1O` [drawing 569, 4-[4,6-Bis-((3R,5S)-3,5-diamino-piperidin-1-yl)-[1,3,5]triazin-2-ylamino]-2-hydroxy-benzoic acidphenyl ester] it is “++ (++ means MIC<16 μg/ml in E. coli or S. aureus)”.

For the molecule “N-(4-acetylamino-3,5-dichloro-phenyl)-4,6-Bis-0((3R,5S)-3,5-diamino-piperidin-1-yl)-[1,3,5]triazine-2-amine”, the “Potency (MIC)” value is reported as “− (− means MIC>64 μg/ml in E. coli or S. aureus)”. Turning to “N-(4-phenylazo-phenyl)-4,6-Bis-((3R,5S)-3,5-0diamino-piperidin-1-yl)-[1,3,5]triazine-2-amine”, the “Potency (MIC)” value is reported as “++ (++ means MIC<16 μg/ml in E. coli or S. aureus)”.

These data come from US7223759B2, “Antibacterial 3,5-diaminopiperidine-substituted aromatic and heteroaromatic compounds” (Anadys Pharmaceuticals, Inc., priority 2003, dated 2007).
